Experimental data from patent publication US7417150B2, “Azoles having an insecticidal action” (Bayer CropScience AG, priority 2001, dated 2008).

Assays:
[1] = tested on: Adults of Ctenocephalides felis; assay: Test with cat fleas / oral uptake; type: in vivo; settings: 100 ppm in citrated cattle blood, mortality after 24 h, strain "Georgi", at least 25% kill judged effective, read-out: % action (mortality of larvae)
Protocol: Test with Cat Fleas/Oral Uptake
To produce a suitable preparation, a suitable solution of active compound is prepared from 20 mg of active compound and 1 ml of DMSO. 20 μl of this formulation are added to 4 ml of citrated cattle blood and stirred.
20 unfed adult fleas (Ctenocephalides felis, strain “Georgi”) are placed into a chamber (Ø 5 cm) whose top and bottom are closed with gauze. A metal cylinder whose underside is covered with parafilm is placed onto the chamber. The cylinder contains the 4 ml of blood/active compound formulation which can be taken up by the fleas through the parafilm membrane. Whereas the blood is warmed to 37° C., the temperature in the area of the flea chambers is adjusted to 25° C. Controls are mixed with the same volume of DMSO, without addition of a compound. The determinations are carried out triplicate.
After 24 h, the mortality in % is determined.
Compounds which effect an at least 25% kill of the fleas within 24 h are judged to be effective.

[2] = tested on: Meloidogyne incognita; assay: Meloidogyne test (nematicidal action, gall formation on lettuce roots); type: in vivo; settings: 20 ppm active compound; 100% = no galls found, 0% = galls as untreated control; lettuce in sand
Protocol: To produce a suitable preparation of active compound, 1 part by weight of active compound is mixed with the stated amounts of solvent and emulsifier, and the concentrate is diluted with water to the desired concentration.
Containers are filled with sand, solution of active compound, Meloidogyne incognita egg larvae suspension and lettuce seeds. The lettuce seeds germinate and the plants develop. On the roots, galls are formed.
After the desired period of time, the nematicidal action is determined in % using gall formation as a measure. 100% means that no galls were found; 0% means that the number of galls on the treated plants corresponds to that of the untreated control.

Question: `CN(Cc1ccc(Cl)nc1)C1=N/C(=N/C#N)SC1` [Example I-1, 4-(N-(6-chloro-3-pyridylmethyl)-N-methyl)amino-2-cyanimino-2,5-dihydro-[1,3]-thiazoline] was tested. Which mortality at 100 ppm [1] did it give?
Answer: 30%

Question: For `CN(Cc1ccc(Cl)nc1)C1=N/C(=N/C#N)SC1` [drawing 50], which “Kill rate in % after 14 days” value [2] is on record?
Answer: 98%
